Structures can show the parent of a compound that is named as a salt. Where two headings read alike, the source gives them in different places.
Assays:
[1] = tested on: Plasmodium falciparum strain 3D7; assay: Plasmodium falciparum 3D7 growth inhibition, SYBRgreen fluorescence assay; format: cell-based; details: minimum of 3 independent experiments, read-out: EC50 (μM) for Pf 3D7
Protocol: Parasite cultures and cytotoxicity assay methodology for Plasmodium falciparum. Cultures of the widely-used malaria reference strain of chloroquinine-sensitive Plasmodium falciparum strain 3D7 were maintained in a 5% suspension of human red blood cells cultured in RPMI 1640 medium supplemented with 0.5% Albumax II (available from Gibco Life Technologies, San Diego, Calif.), 12 mM sodium bicarbonate, 0.2 mM hypoxanthine, (pH 7.3), and 20 mg/litre gentamicin at 37° C., in an atmosphere of 1% O2, 3% CO2 with a gas balance of nitrogen. […] Mefloquine was used as a drug control to monitor the quality of the assay (Z′=0.6 to 0.8, where Z′ is a measure of the discrimination between the positive and negative controls on a screen plate). Dose-response curves were determined from a minimum of 3 independent experiments. Compound bioactivity was expressed as EC50, the effective concentration of compound causing 50% parasite death.

[2] = tested on: sporogonic development in the mosquito; assay: Standard membrane feeding assay (SMFA); format: in vivo; details: preliminary results
From the text: The standard membrane feeding assay (SMFA) is used to test the potential effects of compounds or drugs on sporogonic development in the mosquito and it is used to asses their potential for malaria transmission blocking in vivo. The test protocol is described in detail at Antimicrobial Agents and Chemotherapy, 2012, 56 3544-3548 and PLoS ONE 7(8): e42821, the contents of which are included herein by reference.

[3] = tested on: GFP-transfected Plasmodium berghei ANKA strain; assay: Plasmodium berghei mouse model, standard Peter's four-day test; format: in vivo; details: NMRI female mice, oral, 1 mg/kg 4x (once a day for four days); for % Reduction in parasitaemia: parasitaemia 24 h after last dose
From the text: Plasmodium species that lead to human malarial infection are essentially unable to infect non-primate animal models. Rodent models as antimalarial drug discovery efficacy models for compound screening have been extensively used and validated for use through the identification of several antimalarial drugs such as mefloquine, and artemisinin derivatives. Such mouse models, including the Plasmodium berghei mouse model are an integral part of the drug discovery and development pathway. […] In particular experimental results have shown that a compound of formula (I) has improved potency, expressed as ED90, the dose required to eradicate 90% of the target infection [ED90 of 0.3-0.1 mg/kg], versus existing anti-malarial drugs.
Methodology. Using the standard Peter's test in NMRI female mice infected with GFP-transfected Plasmodium berghei ANKA strain were used. Test compounds were dosed orally once a day for four days at nine dose levels ([…], 0.03, 0.1, 0.3, 1, 3, 10, 30 mg/kg) and parasitaemia assessed 24 h after the last dose to determine ED90. The test protocol is described in detail Nature, 2004, 430, 900-904, the contents of which are included herein by reference.

[4] = Thermogravimetric analysis (TGA); format: physicochemical; details: 10° C./min; example 1A heated to ~120° C., example 2 to ~150° C.
Protocol: Thermogravimetric Analysis (TGA) of compounds of the invention was conducted at 10° C./min ramping form room temperature to desired temperature in open platinum pans using at TA Instruments Q5000 TGA. The temperature was calibrated using nickel and weight using TA-supplied standard weights and verified against calcium oxalate monohydrate dehydration and decomposition. Typical parameters for TGA are described in Table 5. [table]

[5] = Dynamic vapour sorption (DVS) moisture sorption; format: physicochemical; details: for hygroscopicity (DVS): 25° C.; for water uptake (DVS): 80% R.H./25° C.
Protocol: The moisture sorption of compounds of the invention was measured using a SMS (Surface Measurement Systems) DVS Intrinsic. The relative humidity at 25° C. was calibrated against deliquescence point of LiCl, Mg(NO3)2 and KCl. Parameters for DVS test are listed below. [table]

Plasmodium falciparum = assay: P. falciparum SCID mouse model; format: in vivo; details: preliminary results
From the text: Compounds can be further assessed using a murine model of Plasmodium falciparum malaria (the so-called P. falciparum SCID mouse model). The murine Plasmodium falciparum models require the engrafment of mice with human erythrocytes. The use NODscidlL2Rγ^null mice engrafted with human erythrocytes and competent P. falciparum strains have been validated for the preclinincal evaluation of antimalarials. The test protocol is described in detail at Antimicrobial Agents and Chemotherapy, 2009, 53 4533-4536, the contents of which are included herein by reference.

[6] = concentration causing 50% parasite death
[7] = Plasmodium falciparum, 3D7, concentration causing 50% parasite death

Row | Compound | EC50 [1, 6] [µM] | Mean Survival [3] [days] | % Reduction in parasitaemia [3] [%] | EC50 [1, 7] [µM] | other results
1 | O=C(NCCN1CCCC1)c1cc(-c2ccc(CN3CCOCC3)cc2)nc2ccc(F)cc12 [Example 1, 6-Fluoro-2-[4-(morpholinomethyl)phenyl]-N-(2-pyrrolidin-1-ylethyl)quinoline-4-carboxamide] | 0.001 | 14 | 99.9 |  | in vivo behaviour in standard membrane feeding assay [2]: desirable in vivo behaviour; weight loss on heating (TGA) [4]: < 0.1 wt %; solid form change post DVS testing [5]: No solid form change; hygroscopicity (DVS) [5]: non-hygroscopic; water uptake (DVS) [5]: 0.1%; in vivo behaviour in the P. falciparum SCID mouse model (Plasmodium falciparum): desirable in vivo behaviour
2 | O=C(NCCN1CCCC1)c1cc(-c2ccc(CN3CCOCC3)cc2)nc2ccc(F)cc12.O=C(O)/C=C/C(=O)O [Example 2, 6-Fluoro-2-[4-(morpholinomethyl)phenyl]-N-(2-pyrrolidin-1-ylethyl)quinoline-4-carboxamide; fumaric acid salt] | 0.007 |  |  |  | weight loss on heating (TGA) [4]: negligible weight loss; solid form change post DVS testing [5]: No solid form change; hygroscopicity (DVS) [5]: slightly hygroscopic; water uptake (DVS) [5]: ~1.2%
3 | O=C(NCCN1CCCC1)c1cc(-c2ccc(CN3CCOCC3)cc2)nc2ccc(Cl)cc12 [Example 3, 6-chloro-2-[4-(morpholinomethyl)phenyl]-N-(2-pyrrolidin-1-ylethyl)quinoline-4-carboxamide] |  |  |  | 0.001 | 
4 | O=C(NCCN1CCCC1)c1cc(-c2ccc(CN3CCOCC3)cc2)nc2ccccc12 [Example 4, 2-[4-(morpholinomethyl)phenyl]-N-(2-pyrrolidin-1-ylethyl)quinoline-4-carboxamide] | 0.001 |  |  |  | 
5 | O=C(NCCN1CCCC1)c1cc(-c2ccc(CN3CCOCC3)cc2)nc2ccccc12 [Example 5, 2-[4-(morpholinomethyl)phenyl]-N-(2-pyrrolidin-1-ylethyl)quinoline-4-carboxamide; fumaric acid salt] | 0.003 |  |  |  | 
6 | O=C(NCCN1CCCC1)c1cc(-c2ccc(CN3CCOCC3)c(F)c2)nc2ccc(F)cc12 [Example 6, 6-fluoro-2-(3-fluoro-4-(morpholinomethyl)phenyl)-N-(2-(pyrrolidin-1-yl)ethyl)quinoline-4-carboxamide] |  | 11 | 99.8 | 0.0007 | 
7 | O=C(NCCN1CCCC1)c1cc(-c2ccc(CN3CCOCC3)cc2F)nc2ccc(F)cc12 [Example 7, 6-fluoro-2-(2-fluoro-4-(morpholinomethyl)phenyl)-N-(2-(pyrrolidin-1-yl)ethyl)quinoline-4-carboxamide] |  | 11 | 99.9 | 0.0005 | 
8 | O=C(NCCN1CCCC1)c1cc(-c2cc(F)c(CN3CCOCC3)c(F)c2)nc2ccc(F)cc12 [Example 8, 2-(3,5-difluoro-4-(morpholinomethyl)phenyl)-6-fluoro-N-(2-(pyrrolidin-1-yl)ethyl)quinoline-4-carboxamide] |  |  |  | 0.004 | 
9 | O=C(NCCN1CCCC1)c1cc(-c2ccc(CN3CCS(=O)(=O)CC3)cc2)nc2ccc(F)cc12 [Example 9, 2-(4-((1,1-dioxidothiomorpholino)methyl)phenyl)-6-fluoro-N-(2-(pyrrolidin-1-yl)ethyl)quinoline-4-carboxamide] |  | 7 | 99.0 | 0.0006 | 
10 | O=C(NCCN1CCCC1)c1cc(-c2ccc(CN3CCOCC3)cc2Cl)nc2ccc(F)cc12 [Example 11, 2-(2-chloro-4-(morpholinomethyl)phenyl)-6-fluoro-N-(2-(pyrrolidin-1-yl)ethyl)quinoline-4-carboxamide; fumaric acid salt] |  |  |  | 0.003 | 

From patent US9115088B2, “Anti-malarial agents” (MERCK PATENT GMBH, priority 2012, dated 2015)
